# Results reported in PubChem BioAssay AID1963448 (Molecular Pharmacology Branch, DTP, NCI, 2024).
# pIC50: −log10 of the molar value. Where “and” joins values, the source holds several entries; their conditions need not be identical. Equal values may be shown once.
# System: 616215-338-R-J1-PDC complex spheroid growth, % test/control
# Test: Anticancer human tumor 616215-338-R-J1-PDC patient-derived colon adenocarcinoma cell line growth inhibition [Asc]
# Conditions: for viability, T/C: stronger effect = lower value
# Method in brief: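 Complex spheroids combining tumor cells with HUVEC endothelial cells and human MSCs, at 37 degrees C, 5% CO2; agents tested alone or combined, half-log dilutions from at or near clinical Cmax, or 10 microM if Cmax unknown.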
# [1] = curve of first compound, second compound 0.1 µM
# [2] = curve of first compound, second compound 0.316 µM
# [3] = curve of first compound, second compound 1 µM
# [4] = curve of first compound, second compound 3.16 µM
# [5] = curve of first compound, second compound 10 µM
# [6] = second compound 0.1 µM, first compound 0.0316 µM
# [7] = second compound 0.1 µM, first compound 0.1 µM
# [8] = second compound 0.1 µM, first compound 0.316 µM
# [9] = second compound 0.1 µM, first compound 1 µM
# [10] = second compound 0.316 µM, first compound 0.0316 µM
# [11] = second compound 0.316 µM, first compound 0.1 µM
# [12] = second compound 0.316 µM, first compound 0.316 µM
# [13] = second compound 0.316 µM, first compound 1 µM
# [14] = second compound 1 µM, first compound 0.0316 µM
# [15] = second compound 1 µM, first compound 0.1 µM
# [16] = second compound 1 µM, first compound 0.316 µM
# [17] = second compound 1 µM, first compound 1 µM
# [18] = second compound 3.16 µM, first compound 0.0316 µM
# [19] = second compound 3.16 µM, first compound 0.1 µM
# [20] = second compound 3.16 µM, first compound 0.316 µM
# [21] = second compound 3.16 µM, first compound 1 µM
# [22] = second compound 10 µM, first compound 0.0316 µM
# [23] = second compound 10 µM, first compound 0.1 µM
# [24] = second compound 10 µM, first compound 0.316 µM
# [25] = second compound 10 µM, first compound 1 µM
# [26] = second compound 0.1 µM, first compound 3.16 µM
# [27] = second compound 0.1 µM, first compound 10 µM
# [28] = second compound 0.316 µM, first compound 3.16 µM
# [29] = second compound 0.316 µM, first compound 10 µM
# [30] = second compound 1 µM, first compound 3.16 µM
# [31] = second compound 1 µM, first compound 10 µM
# 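Note: spheroids exposed to agents for seven days before readout.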
# 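Throughout, for viability, T/C: 100% = DMSO vehicle control viability.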
compound,measurement,setting,value
CCN1CCN(Cc2ccc(Nc3ncc(F)c(-c4cc(F)c5nc(C)n(C(C)C)c5c4)n3)nc2)CC1 + Cc1c(S(C)(=O)=O)c(-c2cc(F)cc(N3CCN(c4ccc(NS(=O)(=O)c5ccc(NC(CCN6CCC(C(=O)OCCCP(=O)(O)O)CC6)CSc6ccccc6)c(S(=O)(=O)C(F)(F)F)c5)cc4)CC3)c2)c(-c2ccc(Cl)cc2)n1C(C)C,pIC50,[1],< 6.00
same,pIC50,[2],< 6.00
same,pIC50,[3],< 6.00
same,pIC50,[4],> 8.50
same,pIC50,[5],> 8.50
same,"viability, T/C","second compound 0.1 µM, first compound 0.00316 µM",92.5%
same,"viability, T/C","second compound 0.1 µM, first compound 0.01 µM",89.3%
same,"viability, T/C",[6],92.6%
same,"viability, T/C",[7],96.5%
same,"viability, T/C",[8],100%
same,"viability, T/C",[9],129%
same,"viability, T/C","second compound 0.316 µM, first compound 0.00316 µM",86%
same,"viability, T/C","second compound 0.316 µM, first compound 0.01 µM",84.9%
same,"viability, T/C",[10],93.2%
same,"viability, T/C",[11],99.7%
same,"viability, T/C",[12],109%
same,"viability, T/C",[13],130%
same,"viability, T/C","second compound 1 µM, first compound 0.00316 µM",68.5%
same,"viability, T/C","second compound 1 µM, first compound 0.01 µM",75.8%
same,"viability, T/C",[14],77.9%
same,"viability, T/C",[15],78%
same,"viability, T/C",[16],99.3%
same,"viability, T/C",[17],95.9%
same,"viability, T/C","second compound 3.16 µM, first compound 0.00316 µM",45.9%
same,"viability, T/C","second compound 3.16 µM, first compound 0.01 µM",52.7%
same,"viability, T/C",[18],58.6%
same,"viability, T/C",[19],69%
same,"viability, T/C",[20],86.1%
same,"viability, T/C",[21],54.8%
same,"viability, T/C","second compound 10 µM, first compound 0.00316 µM",30%
same,"viability, T/C","second compound 10 µM, first compound 0.01 µM",32.9%
same,"viability, T/C",[22],34%
same,"viability, T/C",[23],39.4%
same,"viability, T/C",[24],67.7%
same,"viability, T/C",[25],24.7%
O=C(c1ccc(F)c(F)c1Nc1ccc(I)cc1F)N1CC(O)([C@@H]2CCCCN2)C1,"viability, T/C",compound 0.00316 µM,89.5% and 99.8% and 108%
same,"viability, T/C",compound 0.01 µM,84.3% and 101% and 100%
same,"viability, T/C",compound 0.0316 µM,74.5% and 93.8% and 67.1%
same,"viability, T/C",compound 0.1 µM,54.4% and 51.2% and 15.8%
same,"viability, T/C",compound 0.316 µM,22.1% and 19.3% and 4.03%
same,"viability, T/C",compound 1 µM,1.33% and 0.76% and 3.69%
same,pIC50,curve of compound,6.95 and 6.94 and 7.34
C=CC(=O)N1CCN(c2nc(=O)n(-c3c(C)ccnc3C(C)C)c3nc(-c4c(O)cccc4F)c(F)cc23)C(C)C1 (centres undefined) + Cc1c(S(C)(=O)=O)c(-c2cc(F)cc(N3CCN(c4ccc(NS(=O)(=O)c5ccc(NC(CCN6CCC(C(=O)OCCCP(=O)(O)O)CC6)CSc6ccccc6)c(S(=O)(=O)C(F)(F)F)c5)cc4)CC3)c2)c(-c2ccc(Cl)cc2)n1C(C)C,pIC50,[1],< 5.00
same,pIC50,[2],< 5.00
same,pIC50,[3],5.63
same,pIC50,[4],> 7.50
same,pIC50,[5],> 7.50
same,"viability, T/C",[6],87.5%
same,"viability, T/C",[7],89.8%
same,"viability, T/C",[8],90.4%
same,"viability, T/C",[9],92.9%
same,"viability, T/C",[26],87.5%
same,"viability, T/C",[27],88.3%
same,"viability, T/C",[10],87.7%
same,"viability, T/C",[11],86.9%
same,"viability, T/C",[12],84.5%
same,"viability, T/C",[13],92.1%
same,"viability, T/C",[28],83.4%
same,"viability, T/C",[29],64.4%
same,"viability, T/C",[14],67.6%
same,"viability, T/C",[15],74.5%
same,"viability, T/C",[16],68%
same,"viability, T/C",[17],61.6%
same,"viability, T/C",[30],45.9%
same,"viability, T/C",[31],42%
same,"viability, T/C",[18],36%
same,"viability, T/C",[19],40.6%
same,"viability, T/C",[20],37.9%
same,"viability, T/C",[21],30.2%
same,"viability, T/C","second compound 3.16 µM, first compound 3.16 µM",22.3%
same,"viability, T/C","second compound 3.16 µM, first compound 10 µM",17.7%
same,"viability, T/C",[22],24.9%
same,"viability, T/C",[23],26.2%
same,"viability, T/C",[24],21.9%
same,"viability, T/C",[25],20%
same,"viability, T/C","second compound 10 µM, first compound 3.16 µM",17.5%
same,"viability, T/C","second compound 10 µM, first compound 10 µM",5.58%
O=C(c1cc(Cc2n[nH]c(=O)c3ccccc23)ccc1F)N1CCN(C(=O)C2CC2)CC1 + CNC(C)C(=O)NC1CN(S(=O)(=O)c2cccc(S(=O)(=O)N3CCC4CCC(C(=O)NC(c5ccccc5)c5ccccc5)N4C(=O)C(NC(=O)C(C)NC)C3)c2)CCC2CCC(C(=O)NC(c3ccccc3)c3ccccc3)N2C1=O,pIC50,"curve of first compound, second compound 0.00316 µM",> 7.50
same,pIC50,"curve of first compound, second compound 0.01 µM",< 5.00
same,pIC50,"curve of first compound, second compound 0.0316 µM",< 5.00
same,pIC50,[1],< 5.00
same,pIC50,[2],< 5.00
same,pIC50,[3],< 5.00
same,"viability, T/C","second compound 0.00316 µM, first compound 0.0316 µM",8.47%
same,"viability, T/C","second compound 0.00316 µM, first compound 0.1 µM",8.86%
same,"viability, T/C","second compound 0.00316 µM, first compound 0.316 µM",12.9%
same,"viability, T/C","second compound 0.00316 µM, first compound 1 µM",10.3%
same,"viability, T/C","second compound 0.00316 µM, first compound 3.16 µM",8.76%
same,"viability, T/C","second compound 0.00316 µM, first compound 10 µM",7.09%
same,"viability, T/C","second compound 0.01 µM, first compound 0.0316 µM",93.3%
same,"viability, T/C","second compound 0.01 µM, first compound 0.1 µM",88.3%
same,"viability, T/C","second compound 0.01 µM, first compound 0.316 µM",97.2%
same,"viability, T/C","second compound 0.01 µM, first compound 1 µM",95.6%
same,"viability, T/C","second compound 0.01 µM, first compound 3.16 µM",80.8%
same,"viability, T/C","second compound 0.01 µM, first compound 10 µM",76.9%
same,"viability, T/C","second compound 0.0316 µM, first compound 0.0316 µM",103%
same,"viability, T/C","second compound 0.0316 µM, first compound 0.1 µM",91%
same,"viability, T/C","second compound 0.0316 µM, first compound 0.316 µM",102%
same,"viability, T/C","second compound 0.0316 µM, first compound 1 µM",103%
same,"viability, T/C","second compound 0.0316 µM, first compound 3.16 µM",94.9%
same,"viability, T/C","second compound 0.0316 µM, first compound 10 µM",78.1%
same,"viability, T/C",[6],100%
same,"viability, T/C",[7],101%
same,"viability, T/C",[8],94.2%
same,"viability, T/C",[9],95.5%
same,"viability, T/C",[26],95.2%
same,"viability, T/C",[27],78%
same,"viability, T/C",[10],104%
same,"viability, T/C",[11],98%
same,"viability, T/C",[12],105%
same,"viability, T/C",[13],106%
same,"viability, T/C",[28],100%
same,"viability, T/C",[29],69.9%
same,"viability, T/C",[14],102%
same,"viability, T/C",[15],102%
same,"viability, T/C",[16],96.2%
same,"viability, T/C",[17],97.1%
same,"viability, T/C",[30],94.1%
same,"viability, T/C",[31],80.9%
